Source: patent US20090081197A1 (Palatin Technologies, Inc., priority 2007, published 2009)
Like-named read-outs stand apart in the source and are kept apart here. Positions of bridges follow the written chain, without caps; N, C: chain ends. Non-standard residues stand in square brackets, D forms with d. Residues, ends and D or L forms follow the SMILES beside them. No end group written: not given here. 2Nal = N[C@@H](Cc1ccc2ccccc2c1)C(=O)O; d2Nal = N[C@H](Cc1ccc2ccccc2c1)C(=O)O; Nle = CCCC[C@H](N)C(=O)O

Key:
MC4-R [1] = biological target: T1, MC4-R (Homo sapiens, UniProt P32245); assay: cAMP functional activity assay in HEK-293 cells, normal system; assay type: cell-based; parameters: expressed in transfected cells; host or cells: HEK-293
MC4-R [2] = biological target: T1, MC4-R; assay: Competitive inhibition assay using [I^125]-NDP-α-MSH, hMC4-R membranes; assay type: binding; parameters: host or cells: TREx-293 (HEK-293 stably expressing Tet repressor); settings: 1 μM test compound; read-out: Inhibition at 1 μM (NDP-α-MSH) In Normal System, MC4-R
Procedure, shortened: (§1)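 Tracer was 0.4 nM for MC3-R and MC5-R, 0.2 nM for MC4-R and 0.1 nM for MC1-R. Bound radioactivity was gamma-counted after filtration; values are triplicate means, with results below 0% reported as 0%.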

[3] = IV and IP food intake and body weight change, rats; assay type: in vivo; settings: rat, 10 mg/kg, 24 hours
Protocol: IV and IP food intake and body weight change. Change in food intake and body weight was evaluated for selected compounds. Male Sprague-Dawley rats or male C57BL/6 mice were utilized. Animals were individually housed in conventional plexiglass hanging cages and maintained on a controlled 12 hour on/off light cycle. Water and powdered (LabDiet, 5P00 Prolab RMH 3000) or pelleted (Harlan Teklad 2018 18% Protein Rodent Diet) food was provided ad libitum. For 1 week before treatment, 24-hour food intake and body weight change was recorded to assess a baseline for the group during vehicle treatment. The rats were dosed IV with vehicle or selected compounds (0.5-3 mg/kg, and in some cases up to 10 mg/Kg) or dosed intraperitoneally (IP) with vehicle or selected compounds (0.5-10 mg/kg, and in some cases up to 50 mg/kg). Mice were dosed IP. The changes in body weight and food intake for the 24 hour period after dosing were determined. The changes in body weight and food intake for the 48 hour and 72 hour periods after dosing were also measured to determined reversal of changes in body weight and food intake effects back to baseline levels.

MC4-R [4] = biological target: T1, MC4-R; assay: cAMP agonist stimulation, high receptor density system (10 ng/mL doxycycline); settings: for Efficacy/Intrinsic Activity: 10 ng/mL doxycycline, high receptor density hMC4-R system, NDP-α-MSH maximal cAMP = 1.0
MC1-R [5] = biological target: T2, MC1-R (Mus musculus, UniProt Q01727); assay: Competitive inhibition assay using [I^125]-NDP-α-MSH, B-16 mouse melanoma cell membranes; assay type: binding; settings: 1 μM test compound; read-out: Inhibition at 1 μM (NDP-α-MSH) In Normal System, MC1-R
T2 construct: B-16 mouse melanoma cells (containing MC1-R); endogenous in cells
Procedure, shortened: as §1

MC3-R [6] = biological target: T3, MC3-R (Homo sapiens, UniProt P41968); assay: Competitive inhibition assay using [I^125]-NDP-α-MSH, hMC3-R membranes; assay type: binding; parameters: expressed in transfected cells; settings: 1 μM test compound; read-out: Inhibition at 1 μM (NDP-α-MSH) In Normal System, MC3-R
Procedure, shortened: as §1

[7] = IP (and IN) food intake, mice; assay type: in vivo; settings: mouse, IP, 4 hours
Procedure, shortened: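 Male Sprague-Dawley rats dosed IV (0.5-3, up to 10 mg/kg) or IP (0.5-10, up to 50 mg/kg); male C57BL/6 mice dosed IP. Change in food intake and body weight over 24 h post-dose versus 1-week vehicle baseline, with 48 and 72 h reversal checks.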

MC5-R [8] = biological target: T4, MC5-R (Homo sapiens, UniProt P33032); assay: Competitive inhibition assay using [I^125]-NDP-α-MSH, hMC5-R membranes; assay type: binding; parameters: expressed in transfected cells; settings: 1 μM test compound; read-out: Inhibition at 1 μM (NDP-α-MSH) In Normal System, MC5-R
Procedure, shortened: as §1

MC4-R [9] = biological target: T1, MC4-R; assay: cAMP agonist stimulation, low receptor density system (0.1 ng/mL doxycycline); settings: 0.1 ng/mL doxycycline, low receptor density hMC4-R system; NDP-α-MSH maximal cAMP = 1.0
MC5-R [10] = biological target: T4, MC5-R; assay: cAMP functional activity assay in HEK-293 cells; assay type: cell-based; parameters: expressed in transfected cells; host or cells: HEK-293; settings: 1 μM concentration where stated
Protocol: (§2) General method for EC50 determination in functional activity assay. […] Data analysis and EC50 values were determined using nonlinear regression analysis with Prism Graph-Pad software.
(§3) Functional status. The agonist/antagonist status with respect to MC1-R, MC-3R, MC4-R and MC5-R of certain compounds of the invention was determined. Antagonistic activity was determined by measuring the inhibition of α-MSH-induced or NDP-α-MSH-induced cAMP levels following exposure to graded doses of compounds as in the preceding descriptions.

MC3-R [11] = biological target: T3, MC3-R; assay: cAMP functional activity assay in HEK-293 cells; assay type: cell-based; parameters: expressed in transfected cells; host or cells: HEK-293; settings: 1 μM concentration where stated
Protocol: as §2, §3

MC4-R [12] = biological target: T1, MC4-R; assay: Assay for neutral antagonist, Schild analysis (pA2) against NDP-α-MSH; assay type: cell-based; parameters: expressed in transfected cells; host or cells: HEK-293; settings: Schild analysis vs NDP-α-MSH; read-out: pA2 value as antagonist at MC4-R in a normal system (converted)
Protocol: Assay for Neutral Antagonist. […] These studies were carried out in HEK-293 cells expressing the MC4-R receptor. Cells were incubated with the compounds in the presence of the agonist NDP-α-MSH and the extent of antagonism was measured by the decrease in the level of intracellular cAMP. Screening the compounds for antagonists was done at a single concentration of NDP-α-MSH (1.0 nM) over a compound concentration range of 0.5-5000 nM.
Experimental details were similar to the analysis for agonistic activity described above. Briefly, cells were pre-incubated for 30 minutes with the test compounds at concentrations between 0.5 nM and 5000 nM. The cells were then stimulated with NDP-α-MSH at a concentration of 1 nM for 1 hour. For Schild analysis, the interactions were studied using at least 3 concentrations of the compounds, separated by a log unit, over a full range of the agonist (0.005-5000 nM). cAMP levels was measured in the cell lysates after appropriate dilution. Nonlinear regression analysis with Prism Graph-Pad software was used for Schild analysis and to obtain EC50 values. pA2 values were derived from the Schild plot of the data.

MC1-R [13] = biological target: T2, MC1-R; assay: cAMP functional activity assay in B-16 mouse melanoma cells; assay type: cell-based; settings: 1 μM concentration where stated
Protocol: as §2, §3

[14] = Penile erection induction in male rats; assay type: in vivo; settings: rat, ICV
Procedure, shortened: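 Male Sprague-Dawley rats (200-250 g), groups of 4-8, dosed IV or ICV at various doses and observed individually for penile erections. Only statistically relevant increases over vehicle-control mean PEs count as induction; IV responses below 1.0 PEs/rat treated as equivocal, some retested ICV.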

[15] = ICV food intake and body weight change; assay type: in vivo; settings: rat, 1 nmol
Procedure, shortened: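 Rats fitted with intracerebroventricular cannulas and fed ad libitum got a single ICV dose of vehicle or compound (1-3 nmol). Food intake and body-weight change over the 24 h after dosing were compared with a 1-week vehicle baseline. Values at 48 h and 72 h were also recorded to follow return to baseline.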

human MC1-R = biological target: T5, human MC1-R (Homo sapiens, UniProt Q01726); assay: Competitive inhibition assay using [I^125]-NDP-α-MSH, human MC1-R (separate experiments); assay type: binding; settings: separate experiments with human MC1-R; read-out: Ki (nM) (NDP-α-MSH) in a normal system, human MC1-R
T5 construct: expressed in transfected cells

[16] = functional antagonists known not to cause PE response, cited from earlier work

T4 sequence (P33032 whole entry): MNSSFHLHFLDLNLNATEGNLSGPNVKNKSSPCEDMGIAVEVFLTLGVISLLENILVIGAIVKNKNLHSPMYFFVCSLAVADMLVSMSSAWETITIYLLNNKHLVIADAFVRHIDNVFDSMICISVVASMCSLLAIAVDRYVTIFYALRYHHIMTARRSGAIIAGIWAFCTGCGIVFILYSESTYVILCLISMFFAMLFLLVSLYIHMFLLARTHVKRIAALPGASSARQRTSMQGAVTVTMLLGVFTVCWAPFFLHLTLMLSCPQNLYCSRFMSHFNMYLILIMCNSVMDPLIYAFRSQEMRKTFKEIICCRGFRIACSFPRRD
T3 sequence (P41968 whole entry): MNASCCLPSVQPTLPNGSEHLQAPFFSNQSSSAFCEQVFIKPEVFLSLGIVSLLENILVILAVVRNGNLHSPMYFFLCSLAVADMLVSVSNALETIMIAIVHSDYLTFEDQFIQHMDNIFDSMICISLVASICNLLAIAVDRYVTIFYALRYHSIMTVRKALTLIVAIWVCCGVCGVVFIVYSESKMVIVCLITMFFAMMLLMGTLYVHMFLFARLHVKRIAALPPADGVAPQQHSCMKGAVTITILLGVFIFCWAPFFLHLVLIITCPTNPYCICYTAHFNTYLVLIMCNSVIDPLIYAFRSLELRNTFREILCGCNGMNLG
T1 sequence (P32245 whole entry): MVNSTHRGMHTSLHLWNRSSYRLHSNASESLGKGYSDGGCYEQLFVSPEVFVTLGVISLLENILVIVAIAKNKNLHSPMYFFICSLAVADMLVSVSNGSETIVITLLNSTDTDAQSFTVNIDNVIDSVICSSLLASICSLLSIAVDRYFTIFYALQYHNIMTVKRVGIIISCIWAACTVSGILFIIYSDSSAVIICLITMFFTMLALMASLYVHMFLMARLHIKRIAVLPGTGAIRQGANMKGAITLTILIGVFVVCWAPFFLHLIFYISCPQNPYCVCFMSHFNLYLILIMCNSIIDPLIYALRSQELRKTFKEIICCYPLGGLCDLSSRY
T2 sequence (Q01727 whole entry): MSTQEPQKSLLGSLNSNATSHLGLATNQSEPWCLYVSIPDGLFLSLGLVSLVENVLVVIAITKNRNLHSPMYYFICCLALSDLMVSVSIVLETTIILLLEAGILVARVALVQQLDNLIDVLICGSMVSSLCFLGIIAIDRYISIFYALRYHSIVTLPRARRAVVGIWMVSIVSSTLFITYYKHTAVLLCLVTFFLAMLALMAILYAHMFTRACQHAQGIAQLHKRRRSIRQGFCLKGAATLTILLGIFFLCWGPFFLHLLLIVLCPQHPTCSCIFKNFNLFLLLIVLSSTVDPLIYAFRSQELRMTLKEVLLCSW
T5 sequence (Q01726 whole entry): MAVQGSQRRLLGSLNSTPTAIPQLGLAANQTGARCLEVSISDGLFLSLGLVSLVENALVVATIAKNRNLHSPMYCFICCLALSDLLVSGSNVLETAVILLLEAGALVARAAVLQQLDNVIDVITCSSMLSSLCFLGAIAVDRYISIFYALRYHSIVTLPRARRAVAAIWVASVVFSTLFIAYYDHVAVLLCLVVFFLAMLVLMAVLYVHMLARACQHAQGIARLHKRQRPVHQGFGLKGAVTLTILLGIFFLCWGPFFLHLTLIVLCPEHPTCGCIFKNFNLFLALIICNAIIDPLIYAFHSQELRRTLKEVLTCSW

| Molecule | inhibition at 1 µM (MC4-R [2]) [%] | Efficacy/Intrinsic Activity (MC4-R [4]) | inhibition at 1 µM (MC1-R [5]) [%] | inhibition at 1 µM (MC3-R [6]) [%] | inhibition at 1 µM (MC5-R [8]) [%] | Efficacy/Intrinsic Activity (MC4-R [9]) | Kb (MC4-R [12]) [nM] | Penile Erection ICV [16] | Penile Erection IV [16] | other results |
| --- | --- | --- | --- | --- | --- | --- | --- | --- | --- | --- |
| C[C@@H]1CN(C(=O)[C@H](N)Cc2ccc(Cl)cc2Cl)[C@@H](CCCNC(=N)N)CN1CCc1ccc2ccccc2c1 [Example 11, N-{3-[1-[2(R)-Amino-3-(2,4-dichloro-phenyl)-propionyl]-5(R)-methyl-4-(2-naphthalen-2-yl-ethyl)-piperazin-2(S)-yl]-propyl}-guanidine] | 99 | 0.49 | 20 | 72 | 65 | None | 15.8 | – | – | functional status at MC4-R in cAMP assay (MC4-R [1]; normal system, 1 μM concentration where stated): antagonist; maximal decrease in food intake ([3]; IP): 19%; maximal decrease in food intake ([3]; IV): 87%; EC50 (MC4-R [4]): 61 nM; maximal decrease in food intake ([7]; 3 mg/kg): 10%; maximal decrease in food intake ([7]; 10 mg/kg): 30%; functional status at MC5-R in cAMP assay (MC5-R [10]): inactive; functional status at MC3-R in cAMP assay (MC3-R [11]): inactive; functional status at MC1-R in cAMP assay (MC1-R [13]): inactive |
| CCCC[C@H](NC(C)=O)C(=O)N[C@H]1CC(=O)NCCCC[C@@H](C(=O)O)NC(=O)[C@H](Cc2ccc3ccccc3c2)NC(=O)[C@H](CCCNC(=N)N)NC(=O)[C@@H](Cc2ccc3ccccc3c2)NC(=O)[C@H](Cc2c[nH]cn2)NC1=O [Example 34, Ac-Nle-cyclo(Asp-His-D-Nal 2-Arg-Nal 2-Lys)-OH] (Ac-[Nle]DH[d2Nal]R[2Nal]K-OH; lactam 2-7) | 100 | None | 102 | 98 | 100 | None | 7.94 | – | – | Penile Erection ICV [14]: No; PE efficacy ([14]; 3 nanomole): inactive; functional status at MC4-R in cAMP assay (MC4-R [1]; at 1 nM dose): inactive; 24 hour increase in food intake [15]: 12 g; increase in body weight ([15]; 24 hours): 16 g; Ki (human MC1-R): 0.25 nM |
| AGRP (83-132): AgRP (83-132); functional antagonist known not to cause PE response (SSRRCVRLHESCLGQQVPCCDPCATCYCRFFNAFCYCRKLGTAMNPCSRT; ends and bridges not checked; cysteine pairing not given here) [reference compound] | – | None | – | – | – | None | – | No | No | – |
| cyclo 2,7[Ac-Nle-Asp-His-D-Nal 2-Arg-Trp-Lys]-NH2 [SHU-9119] | – | – | – | – | – | – | – | No | No | – |
